# From patent US11672959B2, “Expandable member systems and methods for drug delivery” (Intersect ENT, Inc., priority 2019, dated 2023)
# Columns and labels:
# [1] = in vitro release rates for expandable members having varying amounts of crystalline mometasone furoate (FIG. 4); assay type: physicochemical
# From the text: FIG. 4 is a graph comparing the in vitro release rates for expandable members having varying amounts of crystalline mometasone furoate. The amount of crystalline and amorphous drug provided in the drug layer will generally vary depending on the active agent employed, target tissue being treated, therapeutic drug level desired in the target tissue, and/or the drug release profile desired. For example, the ratio of amorphous to crystalline drug in the drug layer can be about 1:3, 1:2, 1:1, 2:1, or 3:1. A higher amorphous to crystalline drug ratio can lead to quicker tissue absorption due to the higher solubility of amorphous drug. In turn, a higher crystalline to amorphous drug ratio can lead to longer residence time of the drug on tissue. […] Thus, a combination of amorphous and crystalline drug in the drug layer can provide immediate release of the active agent to begin treatment of a nose, ear, or throat condition, as well as sustained release of the active agent into the target tissue, as illustrated by the moderate in vitro release rates for drug layers subjected to solvent vapor annealing (SVA) in FIG. 4. In some variations, the drug layer is formed to include about 60% of the active agent as drug crystals. In one variation, the drug layer is formed to include mometasone furoate, where about 60% of the mometasone furoate is in crystalline form. The ratio of crystalline to amorphous drug in the drug layer can be adjusted during the drug layering process onto the expandable member, e.g., during the solvent vapor annealing process, as further described below, or during sterilization.
# [2] = tissue MF concentration after balloon expansion in sheep frontal sinus ostia; details: for concentration at 30 days / concentration at 7 days / concentration at 14 days / concentration at 1 hour: sheep; for concentration at 1 hour: Approx. 1 hour after inflation
# Description: (§1) The amount of mometasone furoate transferred to the ostia (total MF released) was measured after inflation of balloons having a drug layer including the listed dose of mometasone furoate drug crystals and poly(ethylene glycol) and polysorbate as the excipients.
# (§2) In this Example, drug layered balloons were made according to Example 1 and used to dilate sheep frontal ostia.
# [3] = plasma MF concentration after balloon expansions in sheep frontal sinus ostia; assay type: in vivo
# [4] = tissue concentration of mometasone furoate after balloon expansion in Eustachian tubes (LCMS); assay type: in vivo, domestic sheep; details: sheep, Eustachian tube mucosa, 1500 μg balloon expanded to 12 atm, read-out: maximum mometasone furoate tissue concentration
# Description: The Eustachian tubes of eight domestic sheep were accessed transnasally using balloon catheters having drug layers containing 1500 μg of mometasone furoate. The balloon catheters were made as described in Example 1. A singe balloon catheter was expanded to 12 atm of pressure to deliver the mometasone furoate crystals to Eustachian tube tissue and to dilate each contralateral Eustachian tube at its proximal opening. The animals were sacrificed at either 7 days or 30 days after balloon expansion, and mucosa from each Eustachian tube collected and frozen. Mometasone furoate concentration was then quantified using liquid chromatography mass spectrometry (LCMS).
# [5] = MF released from drug layered balloon on inflation in sheep frontal sinus ostia; assay type: in vivo
# Description: as §1
# Expandable members were made by spray coating 6 mm×20 mm semi-compliant balloons with a drug layer formulation. The drug layer formulation included either a 1500 μg or 3000 μg dose of mometasone furoate, poly(ethylene glycol), and a polysorbate. The drug layered balloons were then exposed in an acetone solvent vapor for 30 minutes.
# as §2
# [6] = frontal sinus ostia tissue, 3000 μg, Average Tissue MF Concentrations, Frontal Sinus Ostia, MF Dose 3000 μg, Study Arm 1, 2
# [7] = nasal passage tissue, 3000 μg, Average Tissue MF Concentrations, Nasal Passage, MF Dose 3000 μg, Study Arm 1, 2
compound,measurement,setting,value
"C[C@@H]1C[C@H]2[C@@H]3CCC4=CC(=O)C=C[C@]4(C)[C@@]3(Cl)[C@@H](O)C[C@]2(C)[C@@]1(OC(=O)c1ccco1)C(=O)CCl [MF, mometasone furoate]",in vitro release rate,[1]; drug layer contains the active agent only as crystals (100% crystals),slowest
same,in vitro release rate,[1]; drug layer contains the active agent only in amorphous form (0% crystals),fastest
same,in vitro release rates,"[1]; drug layers subjected to solvent vapor annealing (SVA), amorphous and crystalline drug",moderate
same,average tissue MF concentrations for the frontal sinus ostia relative to therapeutic levels,"[2]; MF Dose 3000 μg, all time points",at or above therapeutic levels
same,concentration at 30 days,"[2]; frontal sinus ostia tissue, 1500 μg, Average 30 day tissue MF Concentration in Sinus Ostia, 36.4% drug crystals, crystal size 78.7 μm, 30 days",5000 ng/g
same,concentration at 30 days,"[2]; frontal sinus ostia tissue, 1500 μg, Average 30 day tissue MF Concentration in Sinus Ostia, 62.5% drug crystals, crystal size 128.1 μm, 30 days",1000 ng/g
same,concentration at 30 days,"[2]; frontal sinus ostia tissue, 1500 μg, MF Concentration Frontal Sinus Ostia Tissue, MF Dose 1500 μg, explant timepoint 30 days, two expansions",5000 ng/g
same,concentration at 30 days,"[2]; frontal sinus ostia tissue, 1500 μg, average tissue MF concentrations for the frontal sinus ostia, MF dose 1500 μg, 30 days, compared with therapeutic level",> 100 ng/g
same,concentration at 30 days,"[2]; frontal sinus ostia tissue, 1500 μg, mometasone furoate concentrations in tissue at 30 days, crystals sized less than 80 μm, less than 60% of the drug layer containing drug crystals",~5000 ng/g
same,concentration at 30 days,"[2]; frontal sinus ostia tissue, 3000 μg, Average 30 day tissue MF Concentration in Sinus Ostia, 60.4% drug crystals, crystal size 91.1 μm, 30 days",100 ng/g
same,concentration at 30 days,"[2]; frontal sinus ostia tissue, 3000 μg, Average 30 day tissue MF Concentration in Sinus Ostia, 67.4% drug crystals, crystal size 132.6 μm, 30 days",2000 ng/g
same,concentration at 7 days,[2]; [6],9890 ng/g
same,concentration at 14 days,[2]; [6],1250 ng/g
same,concentration at 30 days,"[2]; frontal sinus ostia tissue, 3000 μg, Average Tissue MF Concentrations, Frontal Sinus Ostia, MF Dose 3000 μg, Study Arm 1, 2, 30 days",100 ng/g
same,concentration at 1 hour,[2]; [6],142000 ng/g
same,concentration at 30 days,"[2]; in vivo, 30 day tissue concentrations (in sheep frontal sinus ostia)",≥ 100 ng/g
same,concentration at 7 days,[2]; [7],60 ng/g
same,concentration at 14 days,[2]; [7],20 ng/g
same,concentration at 30 days,"[2]; nasal passage tissue, 3000 μg, Average Tissue MF Concentrations, Nasal Passage, MF Dose 3000 μg, Study Arm 1, 2, 30 days",1380 ng/g
same,concentration at 1 hour,[2]; [7],4730 ng/g
same,MF Concentration Plasma,"[3]; MF Dose 1500 μg, 30 days, analytical range 20.0-1000.0 pg/mL",BLQ (Below Limit of Quantitation (≤20.0 pg/mL))
same,plasma levels,"[3]; MF dose 1500 μg, 30 days post the two expansions",below the limit of quantitation
same,concentration at 7 days,[4]; 7 days,47000 ng/g
same,concentration at 30 days,[4]; 30 days,200 ng/g
same,Total MF Released,"[5]; Dose 1500 μg, 36.4% drug crystals, crystal size 78.7 μm, PEG and polysorbate excipients",350 µg
same,Total MF Released,"[5]; Dose 1500 μg, 62.5% drug crystals, crystal size 128.1 μm",478 µg
same,Total MF Released,"[5]; Dose 3000 μg, 60.4% drug crystals, crystal size 91.1 μm",1778 µg
same,Total MF Released,"[5]; Dose 3000 μg, 67.4% drug crystals, crystal size 132.6 μm",1058 µg
same,MF Release (% MF Dose),"[5]; MF Dose 1500 μg, 1st inflation, Study Arm 2 (treatment)",35 % MF Dose
same,Average MF Release per Inflation,"[5]; MF Dose 1500 μg, 1st inflation, Study Arm 2 (treatment), n=4",524 µg
same,MF Release (% MF Dose),"[5]; MF Dose 1500 μg, 2nd inflation, Study Arm 1 (treatment)",12 % MF Dose
same,Average MF Release per Inflation,"[5]; MF Dose 1500 μg, 2nd inflation, Study Arm 1 (treatment), n=4",176 µg
same,Average MF Release per Inflation,"[5]; MF Dose 1500 μg, Average over first two inflations",350 µg
same,Total MF Released,"[5]; MF Dose 1500 μg, Table 7",350 µg
same,Average % MF Release per Inflation,"[5]; MF Dose 3000 μg, Study Arm 1, two expansions",30%
same,Average MF Release per Inflation,"[5]; MF Dose 3000 μg, Study Arm 1, two expansions, n=32 devices",889 µg
same,Average % MF Release per Inflation,"[5]; MF Dose 3000 μg, Study Arm 2 (bloody sheep frontal sinus ostia)",28%
same,Average MF Release per Inflation,"[5]; MF Dose 3000 μg, Study Arm 2 (bloody sheep frontal sinus ostia), n=4 devices",854 µg
